Legend:
HDAC 10 = biological target: T1, HDAC 10 (Homo sapiens, UniProt Q969S8); experiment: Fluorescence-based HDAC isoform assay with electrophoretic separation, HDAC 10; type: biochemical; details: carboxy-terminal deletion of 38 amino acids, 1 μM FAM-labeled acetylated peptide, 17 h at 25° C.
T1 construct: 6xHis; made in house; host or cells: Sf9 cells (baculovirus)
T1 sequence (Q969S8 1-631): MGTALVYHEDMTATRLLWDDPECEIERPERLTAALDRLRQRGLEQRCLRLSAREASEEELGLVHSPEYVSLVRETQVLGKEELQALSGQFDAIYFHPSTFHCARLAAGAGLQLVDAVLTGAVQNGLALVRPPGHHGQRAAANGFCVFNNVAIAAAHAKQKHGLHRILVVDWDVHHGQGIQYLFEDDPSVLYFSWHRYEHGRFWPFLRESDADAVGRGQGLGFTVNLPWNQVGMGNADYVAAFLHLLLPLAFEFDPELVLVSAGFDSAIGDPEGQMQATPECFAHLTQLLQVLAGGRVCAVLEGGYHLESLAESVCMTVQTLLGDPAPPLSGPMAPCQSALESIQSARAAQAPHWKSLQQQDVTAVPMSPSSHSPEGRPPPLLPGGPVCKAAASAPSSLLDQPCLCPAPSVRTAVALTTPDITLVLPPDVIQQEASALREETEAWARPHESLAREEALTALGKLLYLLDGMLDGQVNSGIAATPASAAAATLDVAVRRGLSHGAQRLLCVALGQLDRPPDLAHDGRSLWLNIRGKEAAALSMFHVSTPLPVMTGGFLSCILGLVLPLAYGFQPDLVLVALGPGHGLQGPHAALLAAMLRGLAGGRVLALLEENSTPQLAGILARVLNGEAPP
Procedure: The inhibitory effects of the compounds of Examples 7 and 9 above on HDAC activity were determined using a fluorescence-based assay with electrophoretic separation of substrate and product carried out using a microfluidic system followed by quantitation of fluorescence intensity in the substrate and product peaks.
The assays were performed using isolated HDAC isoforms that had been expressed as 6×His-tagged fusion proteins in a baculovirus expression system in Sf9 cells. HDACs 1, 2, 3, 6, and 8 were expressed as full length fusion proteins. For HDAC-4 and 7 only catalytic domains were expressed (HDAC-4 CAT and HDAC-7 CAT). The HDAC10 fusion protein was expressed as a carboxy-terminal deletion of 38 amino acids (residues 632-669). HDAC3 was coexpressed with a fragment of the SMRT gene (residues 395-489) to generate enzymatically active protein. Purified proteins were incubated with 1 μM carboxyfluorescein (FAM)-labeled acetylated peptide substrate and test compound for 17 h at 25° C. in HDAC assay buffer containing 100 mM HEPES (pH 7.5), 25 mM KCl, 0.1% BSA, and 0.01% Triton X-100. […] Substrate and product were separated electrophoretically using a Caliper LabChip 3000 system with blue laser excitation and green fluorescence detection (CCD2). The fluorescence intensity in the substrate and product peaks was determined using the Well Analyzer software on the Caliper system. […]

HL60 cells [1] = experiment: CD11b flow cytometry, differentiation in HL60 cells; type: cell-based; details: 3 days
Procedure: HL60 cells were cultured at 0.5×10^6 cells/ml in complete growth medium. Cells (2 ml) were then treated with ATRA (sourced commercially), the compound of Example 7 (MI-192), or left untreated as controls. After 3 days, CD11b expression was determined by flow cytometry using a PE-conjugated anti-CD11b monoclonal antibody.

HL60 cells [2] = experiment: MTS assay, growth inhibition in HL60 cells; type: cell-based; details: after 3 days (FIG. 2(i) legend: 4 day), absorbance 490 nm relative to untreated cells
Procedure: (§1) HL60 or NB4 cells were diluted in complete growth medium and plated at a density of 5000 cells per 0.1 ml in wells of a 96 well plate. Cells were then treated with various concentrations of the compound of Example 7 (MI-192) or were left untreated as a control in a total volume of 0.2 ml of complete growth medium. After 3 days, relative cell numbers were determined using the MTS assay, as described by the manufacturer (Promega, Southampton, UK). The results shown in FIG. 2(i) are absorbance (490 nm) relative to control cells (untreated cells 100%).

[3] = system: CYP26 RNA expression in HL60 cells; experiment: CYP26 RNA expression in HL60 cells (Q-RT-PCR); type: cell-based
Procedure: (§2) HL60 or NB4 cells were cultured at 1.0×10^6 cells/ml in complete growth medium. Cells (10 ml) were then treated with ATRA, the compound of Example 7(MI-192), or left untreated as controls. After 1 day, the expression of CYP26 and BACT RNAs were determined using quantitative PCR (Taqman). The expression of CYP26 RNA was normalised to BACT, and expression in control cells was set to 1.0.

NB4 cells = experiment: MTS assay, growth inhibition in NB4 cells; type: cell-based; details: after 3 days (FIG. 2(i) legend: 4 day), absorbance 490 nm relative to untreated cells
Procedure: as §1

[4] = system: CYP26 RNA expression in NB4 cells; experiment: CYP26 RNA expression in NB4 cells (Q-RT-PCR); type: cell-based; details: 1 day, normalised to BACT, control set to 1.0
Procedure: as §2

Row | SMILES | melting point | IC50 (HDAC 10) | differentiation (CD11b expression, flow cytometry) (HL60 cells [1]) | growth inhibition (MTS assay) (HL60 cells [2]) | transcription modulating activity compared with ATRA [3] | CYP26 RNA expression ([3]; 1 day, Q-RT-PCR, normalised to BACT, control set to 1.0) | growth inhibition (MTS assay) (NB4 cells) | CYP26 RNA expression [4]
1 | C=C1CN(Cc2ccc(C(=O)Nc3ccccc3N)cc2)C(CC(=O)O)c2ccccc21 (stereo not drawn) [Example 9, [2-(4-{[(2-Aminophenyl)amino]carbonyl}benzyl)-4-methylene-1,2,3,4-tetra hydroisoquinolin-1-yl]acetic acid] | > 230 °C | > 30 µM |  |  |  |  |  | 
2 | C=C1CN(Cc2ccc(C(=O)Nc3ccccc3N)cc2)C(=O)c2ccccc21 [Example 7, N-(2-Aminophenyl)-4-[(4-methylene-1-oxo-3,4-dihydroisoquino-2(1H)-yl)methyl]benzamide] |  | 8.04 µM | promotes growth inhibition and differentiation | promotes growth inhibition | exceeded that of ATRA | induces expression of CYP26 | promotes growth inhibition | induces expression of CYP26

Source: patent publication US20140135327A1, “N- (2 -AMINOPHENYL) BENZAMIDE DERIVATIVES AS HISTONE DEACETYLASE INHIBITORS” (CANCER RESEARCH TECHNOLOGY LIMITED, priority 2011, published 2014)
